Measurements from patent US12594267B2, “Capsid inhibitors for the treatment of HIV” (Gilead Sciences, Inc., priority 2018, dated 2026).
Like-named read-outs stand apart in the source and are kept apart here.

Assays:
HIV-1 clinical isolates = experiment: Antiviral activity against HIV-1 clinical isolates in PHA-stimulated human PBMCs; type: cell-based
Procedure: The antiretroviral activity of the compound of Formula (Ia) was tested against a panel of 22 HIV-1 clinical isolates of HIV-1 and two HIV-2 isolates in freshly isolated, PHA-stimulated human peripheral blood mononuclear cells (PBMCs). The HIV-1 isolates included representative strains from subtypes A, B, C, D, E, F, G, N, O, AE, and AG. Following a 7-day infection, virus production was determined by measuring reverse transcriptase activity in cell-free culture supernatants.

[1] = Plasma PK after single oral administration in solution, dog; type: in vivo, Beagle Dog
Procedure: An oral formulation containing a compound of Formula (Ia) in […], 20% propylene glycol, 45 PEG 300, and 30% 0.01 N HCl was prepared. The formulation was orally administered to male rat, dog, cynomolgus monkey, and rhesus monkey according to the doses shown in Table 8 below.

INSTI-resistant viruses = experiment: Cytopathic antiviral assay in MT-2 cells, INSTI-resistant viruses; type: cell-based, HIV-1; conditions: Mutant/WT (HXB2D) EC50 ratio, mean ± s.d. of three experiments
Procedure: The antiviral activity of the compound of Formula (a) was tested against a panel of known HIV-1 mutants resistant to HIV PIs (ATV and DRV), NRTIs (TFV and FTC), NNRTIs (RPV and EFV) or INSTIs (RAL, EVG and DTG) using a cytopathic antiviral assay in MT-2 cells. The compound of Formula (Ia) was fully active against all tested mutants resistant to PIs (Table 11), NRTIs (Table 12), NNRTIs (Table 13) or INSTIs (Table 14).

[2] = male, beagle, plasma, dog, single oral 4.0 mg/kg, solution in 5% ethanol/20% propylene glycol/45% PEG 300/30% 0.01 N HCl, mean ± SD, n=3

With `CC(C)(C#Cc1ccc(-c2ccc(Cl)c3c(NS(C)(=O)=O)nn(CC(F)(F)F)c23)c([C@H](Cc2cc(F)cc(F)c2)NC(=O)Cn2nc(C(F)(F)F)c3c2C(F)(F)[C@@H]2C[C@H]32)n1)S(C)(=O)=O` [Formula (Ia), N—((S)-1-(3-(4-chloro-3-(methylsulfonamido)-1-(2,2,2-trifluoroethyl)-1H-indazol-7-yl)-6-(3-methyl-3-(methylsulfonyl)but-1-yn-1-yl)pyridin-2-yl)-2-(3,5-difluorophenyl)ethyl)-2-((3bS,4aR)-5,5-difluoro-3-(trifluoromethyl)-3b,4,4a,5-tetrahydro-1H-cyclopropa[3,4]cyclopenta[1,2-c]pyrazol-1-yl)acetamide] the EC50 (HIV-1 clinical isolates; Human immunodeficiency virus 1, BAL, PBMC, 168 h, read-out: EC50 in human PBMCs, HIV-1 subtype B isolate Ba-L, 7-day infection, RT activity readout, mean of triplicate) was 0.04 nM, the EC50 (HIV-1 clinical isolates; Human immunodeficiency virus 1, PBMC, 168 h, read-out: EC50 in human PBMCs, HIV-1 CRF01_AE isolate 90TH_CM235, 7-day infection, RT activity readout, mean of triplicate) was 0.04 nM and the EC50 (HIV-1 clinical isolates; Human immunodeficiency virus 1, PBMC, 168 h, read-out: EC50 in human PBMCs, HIV-1 CRF02_AG isolate 01CM0008BBY, 7-day infection, RT activity readout, mean of triplicate) was 0.05 nM. It also gave an EC50 (HIV-1 clinical isolates; Human immunodeficiency virus 1, PBMC, 168 h, read-out: EC50 in human PBMCs, HIV-1 CRF02_AG isolate 91DJ263, 7-day infection, RT activity readout, mean of triplicate) of 0.04 nM, an EC50 (HIV-1 clinical isolates; Human immunodeficiency virus 1, PBMC, 168 h, read-out: EC50 in human PBMCs, HIV-1 Group N isolate YBF30, 7-day infection, RT activity readout, mean of triplicate) of 0.02 nM and an EC50 (HIV-1 clinical isolates; Human immunodeficiency virus 1, PBMC, 168 h, read-out: EC50 in human PBMCs, HIV-1 Group O isolate BCF01, 7-day infection, RT activity readout, mean of triplicate) of 0.04 nM. It also gave an EC50 (HIV-1 clinical isolates; Human immunodeficiency virus 1, PBMC, 168 h, read-out: EC50 in human PBMCs, HIV-1 subtype A isolate 92UG031, 7-day infection, RT activity readout, mean of triplicate) of 0.04 nM, an EC50 (HIV-1 clinical isolates; Human immunodeficiency virus 1, PBMC, 168 h, read-out: EC50 in human PBMCs, HIV-1 subtype A isolate 92UG037, 7-day infection, RT activity readout, mean of triplicate) of 0.07 nM and an EC50 (HIV-1 clinical isolates; Human immunodeficiency virus 1, PBMC, 168 h, read-out: EC50 in human PBMCs, HIV-1 subtype B isolate 89BZ_167, 7-day infection, RT activity readout, mean of triplicate) of 0.08 nM. It also gave an EC50 (HIV-1 clinical isolates; Human immunodeficiency virus 1, PBMC, 168 h, read-out: EC50 in human PBMCs, HIV-1 subtype B isolate 90US_873, 7-day infection, RT activity readout, mean of triplicate) of 0.04 nM, an EC50 (HIV-1 clinical isolates; Human immunodeficiency virus 1, PBMC, 168 h, read-out: EC50 in human PBMCs, HIV-1 subtype B isolate 91US001, 7-day infection, RT activity readout, mean of triplicate) of 0.03 nM and an EC50 (HIV-1 clinical isolates; Human immunodeficiency virus 1, PBMC, 168 h, read-out: EC50 in human PBMCs, HIV-1 subtype B isolate 91US004, 7-day infection, RT activity readout, mean of triplicate) of 0.04 nM. For the same compound, the EC50 (HIV-1 clinical isolates; Human immunodeficiency virus 1, PBMC, 168 h, read-out: EC50 in human PBMCs, HIV-1 subtype B isolate 96TH_NP1538, 7-day infection, RT activity readout, mean of triplicate) was 0.05 nM, the EC50 (HIV-1 clinical isolates; Human immunodeficiency virus 1, PBMC, 168 h, read-out: EC50 in human PBMCs, HIV-1 subtype B isolate JR-CSF, 7-day infection, RT activity readout, mean of triplicate) was 0.04 nM and the EC50 (HIV-1 clinical isolates; Human immunodeficiency virus 1, PBMC, 168 h, read-out: EC50 in human PBMCs, HIV-1 subtype C isolate 92BR025, 7-day infection, RT activity readout, mean of triplicate) was 0.05 nM. The EC50 (HIV-1 clinical isolates; Human immunodeficiency virus 1, PBMC, 168 h, read-out: EC50 in human PBMCs, HIV-1 subtype C isolate 98US_MSC5016, 7-day infection, RT activity readout, mean of triplicate) was 0.1 nM, the EC50 (HIV-1 clinical isolates; Human immunodeficiency virus 1, PBMC, 168 h, read-out: EC50 in human PBMCs, HIV-1 subtype D isolate 92UG001, 7-day infection, RT activity readout, mean of triplicate) was 0.02 nM and the EC50 (HIV-1 clinical isolates; Human immunodeficiency virus 1, PBMC, 168 h, read-out: EC50 in human PBMCs, HIV-1 subtype D isolate 98UG_57128, 7-day infection, RT activity readout, mean of triplicate) was 0.03 nM. For the same compound, the EC50 (HIV-1 clinical isolates; Human immunodeficiency virus 1, PBMC, 168 h, read-out: EC50 in human PBMCs, HIV-1 subtype E isolate CMU02, 7-day infection, RT activity readout, mean of triplicate) was 0.05 nM, the EC50 (HIV-1 clinical isolates; Human immunodeficiency virus 1, PBMC, 168 h, read-out: EC50 in human PBMCs, HIV-1 subtype E isolate CMU08, 7-day infection, RT activity readout, mean of triplicate) was 0.05 nM and the EC50 (HIV-1 clinical isolates; Human immunodeficiency virus 1, PBMC, 168 h, read-out: EC50 in human PBMCs, HIV-1 subtype F isolate 93BR020, 7-day infection, RT activity readout, mean of triplicate) was 0.05 nM. The EC50 (HIV-1 clinical isolates; Human immunodeficiency virus 1, PBMC, 168 h, read-out: EC50 in human PBMCs, HIV-1 subtype G isolate JV1083, 7-day infection, RT activity readout, mean of triplicate) was 0.16 nM, the EC50 (HIV-1 clinical isolates; Human immunodeficiency virus 1, PBMC, read-out: HIV-1 EC50 Mean ± s.d., mean over the 22 HIV-1 clinical isolates, human PBMCs) was 0.05 ± 0.03 nM and the EC50 (HIV-1 clinical isolates; Human immunodeficiency virus 1, PBMC, read-out: HIV-1 EC50 Median, median over the 22 HIV-1 clinical isolates, human PBMCs) was 0.04 nM. The EC50 (HIV-1 clinical isolates; Human immunodeficiency virus 1, PBMC, read-out: HIV-1 EC50 Range, range over the 22 HIV-1 clinical isolates, human PBMCs) was 0.02 to 0.16 nM, the “F % (bioavailability), in words” value ([1]; dogs, oral solution) was “moderate” and the bioavailability ([1]; male, beagle, plasma, dog, single oral 4.0 mg/kg, same solution, calculated based on AUC0-72h, mean ± SD, n=3, read-out: F (oral bioavailability)) was 22.1 ± 8.4%. The AUC(0-inf) [1, 2] was 16500 ± 10400 µM·h, the Cmax [1, 2] was 471 ± 203 µM and the Tmax [1, 2] was 10.7 ± 11.5 h. The AUC(0-t) ([1]; male, beagle, plasma, dog, single oral 4.0 mg/kg, solution in 5% ethanol/20% propylene glycol/45% PEG 300/30% 0.01 N HCl, mean ± SD, n=3, read-out: AUC0-72h) was 11400 ± 4320 µM·h, the “EC50 Fold-Change” value (INSTI-resistant viruses; E92Q/N155H) was 0.9 ± 0.4 and the “EC50 Fold-Change” value (INSTI-resistant viruses; E138K/Q148K) was 0.7 ± 0.3. The “EC50 Fold-Change” value (INSTI-resistant viruses; G140S/Q148R) was 0.8 ± 0.3.
